This is an account of results in the Kinase Knowledgebase extract (Sharma et al. 2016).

The test deals with MAPK14 (human) (UniProt Q16539). Put plainly: Inhibition of MAPK14 Kinase Activity.
MAPK14 (human), sequence (Q16539 whole entry, looked up): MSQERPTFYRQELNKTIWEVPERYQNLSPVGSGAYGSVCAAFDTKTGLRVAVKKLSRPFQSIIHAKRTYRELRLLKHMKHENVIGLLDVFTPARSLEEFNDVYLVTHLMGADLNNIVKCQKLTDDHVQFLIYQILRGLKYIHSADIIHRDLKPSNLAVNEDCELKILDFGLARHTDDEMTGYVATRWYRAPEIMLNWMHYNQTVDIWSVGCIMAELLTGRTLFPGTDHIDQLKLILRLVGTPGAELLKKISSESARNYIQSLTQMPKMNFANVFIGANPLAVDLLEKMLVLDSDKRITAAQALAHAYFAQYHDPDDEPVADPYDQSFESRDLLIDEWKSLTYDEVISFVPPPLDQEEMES
As usually defined, the IC50 is the midpoint of a concentration-inhibition curve. A high value points to lower potency. `Cc1c(F)cc(C(=O)NC2CC2)cc1-c1ccc2c(cnn2-c2ccc(NCC3CCCO3)cc2)c1` (configuration not stated) displayed a half-inhibitory concentration (IC50) below 10 µM.
Take `Cc1ccc(C(=O)NC2CCC2)cc1-c1ccc2c(cnn2-c2ccc(F)cc2)c1`: the IC50 is below 10 µM.
The same measure for `CCNC(=O)c1cc(F)c(C)c(-c2ccc3c(-c4cccc[n+]4[O-])n[nH]c3c2)c1`: below 10 µM; for `CCNC(=O)c1ccc(C)c(-c2ccc3c(-c4ccc(OC)cc4)n[nH]c3c2)c1`: below 10 µM; for `Cc1c(F)cc(C(=O)NC2CC2)cc1-c1ccc2c(cnn2-c2ccc(C(F)(F)F)cc2)c1`: below 10 µM.
`Cc1c(F)cc(C(=O)NC2CC2)cc1-c1ccc2c(cnn2-c2ccc(Br)cc2)c1` returned a concentration for half-maximal inhibition (IC50) below 10 µM.
The same measure for `Cc1c(F)cc(C(=O)NC(C)C)cc1-c1ccc2c(cnn2-c2ccccc2)c1`: below 10 µM; for `Cc1c(F)cc(C(=O)NC2CC2)cc1-c1ccc2c(cnn2Cc2ccccc2)c1`: below 10 µM; for `COc1ccc(C2N=Nc3cc(-c4cc(C(=O)NC5CC5)ccc4C)ccc32)cc1` (configuration not stated): below 10 µM.
The same measure for `Cc1c(F)cc(C(=O)NC2CC2)cc1-c1ccc2c(ccn2-c2ccc(C#N)cc2)c1`: below 10 µM; for `Cc1ccc(C(=O)NC2CC2)cc1-c1ccc2c(cnn2-c2ccc(F)cc2)c1`: below 10 µM; for `CCNC(=O)c1cc(F)c(C)c(-c2ccc3c(-c4ccnc(C)c4)n[nH]c3c2)c1`: below 10 µM.
`CCNC(=O)c1ccc(C)c(-c2ccc3c(-c4cnccn4)n[nH]c3c2)c1` had an IC50 below 10 µM.
In the case of `Cc1c(F)cc(C(=O)NC2CC2)cc1-c1ccc2c(cnn2-c2ccc(NCCCN(C)C)cc2)c1` it was below 10 µM; in that of `CCNC(=O)c1ccc(-c2n[nH]c3cc(-c4cc(C(=O)NCC)ccc4C)ccc23)nc1`, below 10 µM; in that of `Cc1ccc(C(=O)Nc2c(C)noc2C)cc1-c1ccc2c(-c3ccc(F)cc3)n[nH]c2c1`, below 10 µM.
In the case of `CCNC(=O)c1cc(F)c(C)c(-c2ccc3c(-c4ccc(C)cc4)n[nH]c3c2)c1` it was below 10 µM.
For the molecule `Cc1c(F)cc(C(=O)Nc2ncccn2)cc1-c1ccc2c(cnn2-c2ccccc2)c1`, the IC50 is below 10 µM.
In the case of `CCNC(=O)c1cc(F)c(C)c(-c2ccc3c(-c4ncccn4)n[nH]c3c2)c1` it was below 10 µM; in that of `CCNC(=O)c1ccc(C)c(-c2ccc3c(-c4ccc(S(C)(=O)=O)cc4)n[nH]c3c2)c1`, below 10 µM.
As for `Cc1c(F)cc(C(=O)NC2CC2)cc1-c1ccc2c(cnn2Cc2ccccn2)c1`, the IC50 was below 10 µM.
The same measure for `CCNC(=O)c1cc(F)c(C)c(-c2ccc3c(-c4ccc(OC)nc4)n[nH]c3c2)c1`: below 10 µM.
In the case of `CCNC(=O)c1ccc(C)c(-c2ccc3c(-c4ccc(F)cc4)n[nH]c3c2)c1`, the 50% inhibitory concentration (IC50) was below 10 µM.
The same measure for `Cc1c(F)cc(C(=O)NC2CCC2)cc1-c1ccc2c(cnn2-c2ccccc2)c1`: below 10 µM; for `Cc1c(F)cc(C(=O)NC2CC2)cc1-c1ccc2c(cnn2-c2cc(=O)[nH]cn2)c1`: below 10 µM.
In the case of `Cc1c(F)cc(C(=O)NC2CC2)cc1-c1ccc2c(ccn2-c2cccc(C#N)c2)c1`, the IC50 is below 10 µM.
In the case of `Cc1c(F)cc(C(=O)NC2CC2)cc1-c1ccc2c(cnn2-c2ccc(NC3CCOCC3)cc2)c1` it was below 10 µM; in that of `CCNC(=O)c1cc(F)c(C)c(-c2ccc3c(-c4cnc(C)n4C)n[nH]c3c2)c1`, below 10 µM.
The same measure for `CCCCNC(=O)c1cc(F)c(C)c(-c2ccc3c(cnn3-c3ccccc3)c2)c1`: below 10 µM; for `Cc1cc(-n2ncc3cc(-c4cc(C(=O)NC5CC5)cc(F)c4C)ccc32)nc(C)n1`: below 10 µM.
In turn, `Cc1cccc(-n2ncc3cc(-c4cc(C(=O)NC5CC5)cc(F)c4C)ccc32)c1` came in with an IC50 below 10 µM.
In the case of `Cc1c(F)cc(C(=O)NC2CC2)cc1-c1ccc2c(cnn2-c2ccc(NCC3CCCCC3)cc2)c1` it was below 10 µM.
In the case of `CCCNC(=O)c1cc(F)c(C)c(-c2ccc3c(cnn3-c3ccccc3)c2)c1` it was below 10 µM; in that of `Cc1cnn(C)c1NC(=O)c1cc(F)c(C)c(-c2ccc3c(-c4ccc(F)cc4)n[nH]c3c2)c1`, below 10 µM.
In the case of `Cc1cc(Cn2ncc3cc(-c4cc(C(=O)NC5CC5)cc(F)c4C)ccc32)no1` it was below 10 µM; in that of `CCNC(=O)c1cc(F)c(C)c(-c2ccc3c(cnn3-c3ccccc3)c2)c1`, below 10 µM.
Molecule `CCNC(=O)c1ccc(C)c(-c2ccc3c(-c4ccc(N5CCOCC5)nc4)n[nH]c3c2)c1` yielded a half-maximal inhibitory concentration (IC50) below 10 µM.
In the case of `Cc1c(F)cc(C(=O)NC2CC2)cc1-c1ccc2c(cnn2-c2ccccc2)c1` it was below 10 µM; in that of `Cc1c(F)cc(C(=O)NC2CC2)cc1-c1ccc2c(ccn2-c2ccccn2)c1`, below 10 µM; in that of `Cc1c(F)cc(C(=O)Nc2cc[nH]n2)cc1-c1ccc2c(cnn2-c2ccccc2)c1`, below 10 µM.
The same measure for `CCNC(=O)c1cc(F)c(C)c(-c2ccc3c(-c4cccnc4)n[nH]c3c2)c1`: below 10 µM.
In the case of `Cc1c(F)cc(C(=O)Nc2ccc(F)cc2)cc1-c1ccc2c(cnn2-c2ccccc2)c1` it was below 10 µM; in that of `Cc1cc(F)ccc1-n1ncc2cc(-c3cc(C(=O)NC4CC4)cc(F)c3C)ccc21`, below 10 µM; in that of `CCn1nccc1NC(=O)c1cc(F)c(C)c(-c2ccc3c(-c4ccc(F)cc4)n[nH]c3c2)c1`, below 10 µM.
`Cc1ccc(C(=O)Nc2c(C)cnn2C)cc1-c1ccc2c(-c3ccc(F)cc3)n[nH]c2c1` showed an IC50 below 10 µM.
The same measure for `CCNC(=O)c1ccc(C)c(-c2ccc3c(-c4ccc(F)nc4)n[nH]c3c2)c1`: below 10 µM; for `CNC(=O)c1cc(F)c(C)c(-c2ccc3c(cnn3-c3ccccc3)c2)c1`: below 10 µM.
The molecule `Cc1c(F)cc(C(=O)NC2CC2)cc1-c1ccc2c(cnn2-c2ccc(S(C)(=O)=O)cc2)c1` had an IC50 below 10 µM.
The same measure for `Cc1c(F)cc(C(=O)NC2CC2)cc1-c1ccc2c(cnn2Cc2ccncc2)c1`: below 10 µM; for `Cc1ccc(C(=O)Nc2ccc(F)cc2)cc1-c1ccc2c(cnn2-c2ccccc2)c1`: below 10 µM.
The same measure for `CCNC(=O)c1cc(F)c(C)c(-c2ccc3c(-c4ccc(F)cc4C)n[nH]c3c2)c1`: below 10 µM; for `Cc1ccc(C(=O)NC2CC2)cc1-c1ccc2c(-c3ccc(F)cc3)n[nH]c2c1`: below 10 µM.
The same measure for `CCNC(=O)c1ccc(C)c(-c2ccc3c(-c4cc(C)nn4C)n[nH]c3c2)c1`: below 10 µM; for `Cc1c(F)cc(C(=O)Nc2ccnn2C)cc1-c1ccc2c(-c3ccc(F)cc3)n[nH]c2c1`: below 10 µM; for `CCNC(=O)c1ccc(C)c(-c2ccc3c(-c4ccc(OCC)cc4)n[nH]c3c2)c1`: below 10 µM.
The molecule `CCNC(=O)c1cc(F)c(C)c(-c2ccc3c(-c4c(C)noc4C)n[nH]c3c2)c1` came in with an IC50 below 10 µM.
`Cc1c(F)cc(C(=O)NC2CC2)cc1-c1ccc2c(cnn2-c2ccc(N3CCOCC3)cc2)c1`: the IC50 is below 10 µM.
`Cc1c(F)cc(C(=O)NC2CC2)cc1-c1ccc2c(ccn2-c2cccnc2)c1`: the IC50 was below 10 µM.
In the case of `CCNC(=O)c1cc(F)c(C)c(-c2ccc3c(-c4ccc(Cl)cc4)n[nH]c3c2)c1` it was below 10 µM; in that of `Cc1c(F)cc(C(=O)NC2CC2)cc1-c1ccc2c(cnn2-c2ccc(F)cc2)c1`, below 10 µM; in that of `Cc1c(F)cc(C(=O)NC2CC2)cc1-c1ccc2c(cnn2Cc2ccc(F)cc2)c1`, below 10 µM.
The same measure for `CCNC(=O)c1ccc(C)c(-c2ccc3c(-c4cncnc4)n[nH]c3c2)c1`: below 10 µM; for `Cc1c(F)cc(C(=O)NCC2CC2)cc1-c1ccc2c(cnn2-c2ccccc2)c1`: below 10 µM; for `CCNC(=O)c1cc(F)c(C)c(-c2ccc3c(-c4ccccn4)n[nH]c3c2)c1`: below 10 µM.
In the case of `Cc1c(F)cc(C(=O)NC2CC2)cc1-c1ccc2c(cnn2-c2ccc(NCC(O)CO)cc2)c1` (configuration not stated) it was below 10 µM; in that of `Cc1c(F)cc(C(=O)NC2CC2)cc1-c1ccc2c(cnn2Cc2cccc[n+]2[O-])c1`, below 10 µM; in that of `CCNC(=O)c1cc(F)c(C)c(-c2ccc3c(-c4cccnc4OC)n[nH]c3c2)c1`, below 10 µM.
Molecule `Cc1c(F)cc(C(=O)NC2CC2)cc1-c1ccc2c(cnn2Cc2ccc(C(F)(F)F)cc2)c1` gave an IC50 below 10 µM.
The same measure for `Cc1c(F)cc(C(=O)NC2CC2)cc1-c1ccc2c(cnn2Cc2cccnc2)c1`: below 10 µM; for `Cc1c(F)cc(C(=O)Nc2cc[nH]n2)cc1-c1ccc2c(-c3ccc(F)cc3)n[nH]c2c1`: below 10 µM.
The same measure for `COc1ccc(-c2noc3cc(-c4cc(C(=O)NC5CC5)cc(F)c4C)ccc23)cc1`: below 10 µM.
The same measure for `Cc1c(F)cc(C(N)=O)cc1-c1ccc2c(cnn2-c2ccccc2)c1`: below 10 µM.
The molecule `Cc1c(F)cc(C(=O)Nc2cccnn2)cc1-c1ccc2c(cnn2-c2ccccc2)c1` gave an IC50 below 10 µM.
In turn, `COCCNc1ccc(-n2ncc3cc(-c4cc(C(=O)NC5CC5)cc(F)c4C)ccc32)cc1` came in with a half-maximal inhibitory concentration (IC50) below 10 µM.
In the case of `Cc1c(F)cc(C(=O)NC2CCCC2)cc1-c1ccc2c(cnn2-c2ccccc2)c1`, the IC50 is below 10 µM.
In the case of `CCNC(=O)c1cc(F)c(C)c(-c2ccc3c(-c4ccc(F)cc4OC)n[nH]c3c2)c1` it was below 10 µM.
In the case of `Cc1c(F)cc(C(=O)NC2CC2)cc1-c1ccc2c(cnn2Cc2cc[n+]([O-])cc2)c1` it was below 10 µM; in that of `CNC(=O)Cc1ccc(-n2ncc3cc(-c4cc(C(=O)NC5CC5)cc(F)c4C)ccc32)cc1`, below 10 µM; in that of `Cc1c(F)cc(C(=O)NC2CC2)cc1-c1ccc2c(-c3ccc(O)cc3)noc2c1`, below 10 µM.
In the case of `Cc1c(F)cc(C(=O)NC2CC2)cc1-c1ccc2c(cnn2Cc2ccc[n+]([O-])c2)c1` it was below 10 µM; in that of `Cc1c(F)cc(C(=O)NC2CC2)cc1-c1ccc2c(cnn2-c2ccc(NCCN(C)C)cc2)c1`, below 10 µM; in that of `CCNC(=O)c1cc(F)c(C)c(-c2ccc3c(-c4ccc(C(F)(F)F)cc4)n[nH]c3c2)c1`, below 10 µM.
